# From patent US9408887B2, “Intermittent dosing regimen for treating breast cancer” (New York University, priority 2011, dated 2016)
# “Also recorded” adds a separate entry of the source. Like-named read-outs stand apart in the source and are kept apart here. Starred links: 1 amine or outer side, 2 acyl side, 3 side chain; linkers in the order of their positions; H or OH if unused. Non-standard residues stand in square brackets, D forms with d. Residues, ends and D or L forms follow the SMILES beside them. Groups on a side chain read outwards from the residue. *: point of attachment. Ethylenediamine = C(CN[*:2])N[*:1]; Hyp = O=C(O)[C@@H]1C[C@@H](O)CN1; Phg = N[C@H](C(=O)O)c1ccccc1; CO = O=C([*:1])[*:2]; Bn = c1ccc(C*)cc1
# Tests used:
# [1] = test system: Ki67 staining (cell proliferation); test: Cell proliferation by Ki67 immunohistochemistry in mammary glands of LoxP mice; type: in vivo, mouse; conditions: for cell proliferation as assessed by Ki67 immunohistochemistry: after treatment
# [2] = test system: cells with more than 1 or 2 centrosomes per cell; test: Centrosome index by γ-tubulin immunolocalization in mammary glands of LoxP mice (genomic instability); type: in vivo, mouse; conditions: 7 days of treatment
# Source text: Evidence directed to this point is presented in FIG. 2A, wherein immunolocalization of γ-tubulin (green) is used to locate centrosomes in the mammary glands of wildtype (WT) or Brca1 deficient (Brca1^LoxP/Brca1^LoxP) mice. Nuclei (blue) are counterstained. As shown therein, 1 or 2 centrosomes per cell are observed in wildtype mice, reflecting normal, control numbers of centrosomes in individual cells.
# Nuclei (blue) are counterstained. In wildtype mice, 1 or 2 centrosomes per cell are observed, reflecting normal, control numbers of centrosomes in individual cells.
# [3] = test system: PR/p63 double positive cells; test: Simultaneous immunofluorescence for PR and p63 in mammary glands of Brca1LoxP/Brca1LoxP (C57 loxP) mice; type: in vivo, mouse; conditions: 7 days of treatment; for frequency of PR/p63 double positive cells (in words): LoxP mice; for frequency of PR/p63 double positive cells: C57 loxP mice, untreated loxP 22.5±0.8%, wildtype 3.8±0.4%
# Method: Simultaneous Immunofluorescence for PR and p63: 3-5 μm paraffin embedded tissue sections from C57/b and C57 loxP mice were stained using antibodies against PR and p63 (Lab Vision). Briefly, samples were deparaffinized by 60° C. heating following by xylene immersion for 30 min. Antigens were retrieved by heating 10 min 95° C. followed by 10 min 85° C. in citric acid pH 6.0 (Vector). […] Next day, specific secondary goat anti mouse Alexa Fluor 488 and donkey anti rabbit Alexa Fluor 594 antibodies (Invitrogen) were used to a final concentration of 1:200 to detect the primary antibodies, by incubating the samples for 1 hour at room temperature. Finally, samples were counterstained using DAPI at 0.02 mg/ml and mounted with Vectashield (Vector). Samples were imaged using a 40× objective with 0.95 numerical aperture Zeiss Plan-Apochromat objective on a Zeiss Axiovert equipped with epifluorescence. The number of epithelial cells positive for PR, p63 or both, was then calculated as the relative frequency of positive cells per epithelial cells per image. Finally, frequencies of positive cells between animal groups were statistically analyzed with the chi-square distribution. A probability of p<0.05 was considered statistically significant. Women with BRCA1 mutations are at high risk for developing breast cancer. As described above, an animal model of Brca1 deficiency (Brca1^LoxP/Brca1^LoxP mouse model system, also referred to herein as the LoxP mouse model system) was developed in which the mammary glands are abnormally developed and which presents with a phenotype similar to that observed in women with BRCA1 mutations. The Brca1loxP/loxP phenotype is characterized by ductal dilatation and epithelial hyperplasia. In earlier studies, 4 month old Brca1loxP/loxP mice were treated with pasireotide, PQ401 (a small molecule kinase inhibitor of the IGF-I receptor), or vehicle for 7 days. At the end of that period, mammary development in drug- vs. vehicle-treated animals was compared.
# [4] = test system: Brca1LoxP/Brca1LoxP mice; test: LoxP mammary phenotype (duct width, hyperplasia, HANs) after IGF-I inhibitor treatment; type: in vivo, mouse; conditions: for duct width, glandular hyperplasia and hyperplastic alveolar nodules (in words): symptomatic LoxP mice, after treatment
# Method: The present inventor and colleagues have previously shown that growth hormone induced IGF-I activity is essential for mammary development and also estrogen and progesterone action. To determine whether inhibition of IGF-I action would prevent, reverse or delay the abnormalities associated with BRCA deficiency observed in LoxP animals, symptomatic animals were treated with three different compounds that inhibit IGF-I action.
# Women with BRCA1 mutations are at high risk for developing breast cancer. As described above, an animal model of Brca1 deficiency (Brca1^LoxP/Brca1^LoxP mouse model system, also referred to herein as the LoxP mouse model system) was developed in which the mammary glands are abnormally developed and which presents with a phenotype similar to that observed in women with BRCA1 mutations. The Brca1loxP/loxP phenotype is characterized by ductal dilatation and epithelial hyperplasia. In earlier studies, 4 month old Brca1loxP/loxP mice were treated with pasireotide, PQ401 (a small molecule kinase inhibitor of the IGF-I receptor), or vehicle for 7 days. At the end of that period, mammary development in drug- vs. vehicle-treated animals was compared.
# [5] = rats; Bruns et al. 2002, van der Hoek et al. 2004; cited from earlier work
# [6] = Serum glucose and insulin levels during and post SOM230 treatment in patients; conditions: human, in vivo
# [7] = biological target: SSTR-2 (Homo sapiens, UniProt P30874); conditions: cited from earlier work
# [8] = Phase III, Cushing's disease; cited from earlier work
# [9] = test system: mammary gland development; conditions: rats; cited from earlier work
# [10] = test system: somatostatin receptors; conditions: of 5 subtypes; cited from earlier work
# [11] = biological target: SSTR-5 (Homo sapiens, UniProt P35346); conditions: cited from earlier work
# [12] = biological target: SSTR-1 (Homo sapiens, UniProt P30872); conditions: cited from earlier work
# [13] = biological target: SSTR-3 (Homo sapiens, UniProt P32745); conditions: cited from earlier work
# [14] = humans, cited from earlier work
# [15] = test system: breast cancer; conditions: women with hyperplastic lesions of the breast; clinical evidence; cited from earlier work
# [16] = 13 patients, 30 days after stopping SOM230
# Chain of SSTR-5 (P35346 whole entry, species assumed): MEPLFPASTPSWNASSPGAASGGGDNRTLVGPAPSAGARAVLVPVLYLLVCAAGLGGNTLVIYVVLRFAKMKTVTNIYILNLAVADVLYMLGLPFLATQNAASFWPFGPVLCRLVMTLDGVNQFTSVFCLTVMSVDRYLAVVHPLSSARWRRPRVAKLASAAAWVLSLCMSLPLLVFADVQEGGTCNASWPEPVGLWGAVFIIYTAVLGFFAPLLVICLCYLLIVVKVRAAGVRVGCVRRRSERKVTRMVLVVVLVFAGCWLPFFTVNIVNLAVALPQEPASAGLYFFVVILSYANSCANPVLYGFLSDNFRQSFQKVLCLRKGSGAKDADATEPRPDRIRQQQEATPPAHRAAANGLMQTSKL
# Chain of SSTR-1 (P30872 whole entry, species assumed): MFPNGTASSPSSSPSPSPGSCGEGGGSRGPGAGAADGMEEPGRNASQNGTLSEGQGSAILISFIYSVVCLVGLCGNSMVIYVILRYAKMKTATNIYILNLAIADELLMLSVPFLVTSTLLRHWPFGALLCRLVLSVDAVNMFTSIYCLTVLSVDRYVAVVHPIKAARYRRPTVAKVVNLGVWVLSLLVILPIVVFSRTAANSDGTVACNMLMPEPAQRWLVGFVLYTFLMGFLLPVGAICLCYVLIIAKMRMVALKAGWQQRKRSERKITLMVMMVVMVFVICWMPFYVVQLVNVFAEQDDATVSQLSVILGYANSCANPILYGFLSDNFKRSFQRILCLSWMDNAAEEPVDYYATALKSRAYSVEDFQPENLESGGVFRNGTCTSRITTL
# Chain of SSTR-2 (P30874 whole entry, species assumed): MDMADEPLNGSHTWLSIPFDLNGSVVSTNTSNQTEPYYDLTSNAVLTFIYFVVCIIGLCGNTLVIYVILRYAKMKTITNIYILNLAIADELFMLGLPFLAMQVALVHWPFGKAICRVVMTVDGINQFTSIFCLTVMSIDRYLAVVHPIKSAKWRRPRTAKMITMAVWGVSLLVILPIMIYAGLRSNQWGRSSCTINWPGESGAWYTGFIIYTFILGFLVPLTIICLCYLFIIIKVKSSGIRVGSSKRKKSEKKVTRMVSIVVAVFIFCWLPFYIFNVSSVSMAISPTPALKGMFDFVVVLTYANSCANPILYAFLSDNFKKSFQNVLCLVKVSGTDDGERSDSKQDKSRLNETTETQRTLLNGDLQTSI
# Chain of SSTR-3 (P32745 whole entry, species assumed): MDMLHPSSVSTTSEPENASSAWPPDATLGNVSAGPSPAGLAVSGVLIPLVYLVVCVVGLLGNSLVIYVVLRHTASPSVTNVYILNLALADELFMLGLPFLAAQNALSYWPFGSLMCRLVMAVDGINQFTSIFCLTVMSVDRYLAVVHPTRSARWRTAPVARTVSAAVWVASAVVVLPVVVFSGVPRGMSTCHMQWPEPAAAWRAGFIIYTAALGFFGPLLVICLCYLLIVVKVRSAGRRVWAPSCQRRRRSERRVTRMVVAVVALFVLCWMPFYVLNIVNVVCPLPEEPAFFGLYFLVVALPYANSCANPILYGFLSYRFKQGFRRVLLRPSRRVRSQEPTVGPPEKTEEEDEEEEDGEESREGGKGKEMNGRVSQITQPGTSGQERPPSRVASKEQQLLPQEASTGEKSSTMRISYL
smiles,measurement,setting,value
COc1ccc(Cl)cc1NC(=O)Nc1cc(C)nc2ccccc12 [PQ401],cell proliferation as assessed by Ki67 immunohistochemistry,[1],significantly reduce cell proliferation
same,centrosome index / frequency of cells with more than 1 or 2 centrosomes (in words),[2],significantly reduced
same,frequency of PR/p63 double positive cells (in words),[3],significantly reduce; also recorded: dramatically reduced
same,"duct width, glandular hyperplasia and hyperplastic alveolar nodules (in words)",[4],"reduces duct width, glandular hyperplasia and hyperplastic alveolar nodules"
NCCCC[C@@H]1NC(=O)[C@@H](Cc2c[nH]c3ccccc23)NC(=O)[C@H](c2ccccc2)NC(=O)[C@@H]2C[C@@H](OC(=O)NCCN)CN2C(=O)[C@H](Cc2ccccc2)NC(=O)[C@H](Cc2ccc(OCc3ccccc3)cc2)NC1=O [SOM230] (cyclo(F[Hyp]([CO-Ethylenediamine])[Phg][dW]KY(Bn))),terminal half life,[5],27 h
same,cell proliferation as assessed by Ki67 immunohistochemistry,[1],significantly reduce cell proliferation
same,cell proliferation (Ki67 staining) at 21 days post-treatment,"[1]; treated vs untreated, 21 days into rest period",continues to be inhibited
same,serum glucose at 60 days after discontinuation,13 patients,normal
same,serum insulin at 60 days after discontinuation,13 patients,normal
same,time by which serum glucose and insulin levels normalize after SOM230 administration ceases,13 patients,≤ 30 days
same,mean glucose,[16],95
same,serum insulin,[16],increased
same,women tested with finger stick glucoses of less than 92 mg/dL,by 4 days after cessation of SOM230 administration,6 of 8
same,patients with hyperglycemia,patients diagnosed with or pre-disposed to breast cancer treated with SOM230,100%
same,30 day post-treatment glucose of the patient ultimately determined to be diabetic,"single patient, initial blood sugar 100",117
same,centrosome index / frequency of cells with more than 1 or 2 centrosomes (in words),[2],significantly reduced
same,frequency of PR/p63 double positive cells,[3],5%
same,frequency of PR/p63 double positive cells,[3]; listed as pasireotide,4.8±1.2%
same,frequency of PR/p63 double positive cells (in words),[3],significantly reduce; also recorded: dramatically reduced
same,normalization of finger stick glucose after stopping medication (in words),[6],almost immediately
same,affinity for SSTR-2,[7],high binding affinity
same,HbA1C level,[8],increased
same,cholelithiasis,[8],30%
same,diarrhea,[8],58%
same,fasting plasma glucose level,[8],increased
same,hyperglycemia,[8],40%
same,nausea,[8],52%
same,patients with a hyperglycemia-related adverse event,[8],73%
same,IRS-1 phosphorylation in the mammary gland,[9],reduction
same,growth hormone secretion from the pituitary,[9],inhibitory effect
same,mammary gland development,[9],prevents mammary gland development
same,somatostatin receptors bound,[10],4 of the 5
same,affinity for SSTR-5,[11],high binding affinity
same,affinity for SSTR-1,[12],high binding affinity
same,abnormal ductal dilatation,[4]; LoxP mice,significant effect on inhibiting
same,formation of HANs,[4]; LoxP mice,preventing formation of HANs
same,duct width at 21 days post-treatment (in words),"[4]; LoxP mice, SOM230 treatment then 21 days rest",maintained
same,"time clinical benefit (reduction in PR/p63+ progenitor cells, ductal width and/or proliferative cells) is maintained into the rest period","[4]; LoxP mice, after end of administration",at least 20 days
same,"duct width, glandular hyperplasia and hyperplastic alveolar nodules (in words)",[4],reduces duct width
same,"duct width, glandular hyperplasia and hyperplastic alveolar nodules (in words)",[4]; listed as Pasireotide,"reduces duct width, glandular hyperplasia and hyperplastic alveolar nodules"
same,affinity for SSTR-3,[13],high binding affinity
same,terminal half life,"[14]; Bruns et al. 2002, van der Hoek et al. 2004",27 h
same,plasma half life,[14]; Ma et al. 2005,approximately 12 hours
C[C@H](N)C(=O)NCC(=O)N[C@H]1CSSC[C@@H](C(=O)O)NC(=O)[C@H](CO)NC(=O)[C@H]([C@@H](C)O)NC(=O)[C@H](Cc2ccccc2)NC(=O)[C@H]([C@@H](C)O)NC(=O)C(CCCCN)NC(=O)[C@H](Cc2c[nH]c3ccccc23)NC(=O)[C@H](Cc2ccccc2)NC(=O)[C@H](Cc2ccccc2)NC(=O)[C@H](CC(N)=O)NC(=O)[C@H](CCCCN)NC1=O (some centres unmarked) [SS14],somatostatin receptors bound,[10],all of the somatostatin receptors
same,number of HANs,[4]; nine month old LoxP animals,impressive reduction
same,"duct width, glandular hyperplasia and hyperplastic alveolar nodules (in words)",[4],"reduces duct width, glandular hyperplasia and hyperplastic alveolar nodules"
CC/C(=C(\c1ccccc1)c1ccc(OCCN(C)C)cc1)c1ccccc1 [tamoxifen],prevention of the development of cancer,[15],about 50%
